Results from PubChem BioAssay AID248 (DTP/NCI, 2004).
Several values for one entry are separate records, joined by “and”; a condition that tells them apart may be missing. Equal values may be shown once. Inconclusive results and toxic doses are left out. No stated cut-off is given here; in the data, active means T/C of 150% or more; inactive means T/C below 125%.

System: L1210 leukemia ip in BDF1 mice, survival T/C
Assay: NCI In Vivo Anticancer Drug Screen. Data for tumor model L1210 Leukemia (intraperitoneal) in B6D2F1 (BDF1) mice
Details: endpoint: mean survival time, higher = longer survival
How it was run: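 Antitumor effect is assessed in tumor-bearing animals. Survival in the compound arm is compared with a vehicle-dosed control arm and expressed as their quotient.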

[1] = dose: 100.0 mg/kg/injection, schedule: Q04DX003 (ip), vehicle: saline
[2] = dose: 200.0 mg/kg/injection, schedule: Q04DX003 (ip), vehicle: saline
[3] = dose: 400.0 mg/kg/injection, schedule: Q04DX003 (ip), vehicle: saline
[4] = dose: 75.0 mg/kg/injection, schedule: Q01DX001 (ip), vehicle: other
[5] = dose: 150.0 mg/kg/injection, schedule: Q01DX001 (ip), vehicle: other
[6] = dose: 300.0 mg/kg/injection, schedule: Q01DX001 (ip), vehicle: other
[7] = dose: 100.0 mg/kg/injection, schedule: Q01DX009 (ip), vehicle: saline with Tween-80
[8] = dose: 200.0 mg/kg/injection, schedule: Q01DX009 (ip), vehicle: saline with Tween-80
[9] = dose: 100.0 mg/kg/injection, schedule: Q01DX009 (ip), vehicle: Klucel (hydroxypropylcellulose) (HPC)
[10] = dose: 100.0 mg/kg/injection, schedule: Q04DX003 (ip), vehicle: Klucel (hydroxypropylcellulose) (HPC)
[11] = dose: 200.0 mg/kg/injection, schedule: Q01DX009 (ip), vehicle: Klucel (hydroxypropylcellulose) (HPC)
[12] = dose: 200.0 mg/kg/injection, schedule: Q04DX003 (ip), vehicle: Klucel (hydroxypropylcellulose) (HPC)
[13] = dose: 400.0 mg/kg/injection, schedule: Q01DX009 (ip), vehicle: Klucel (hydroxypropylcellulose) (HPC)
[14] = dose: 400.0 mg/kg/injection, schedule: Q01DX009 (ip), vehicle: saline with Tween-80
[15] = dose: 400.0 mg/kg/injection, schedule: Q04DX003 (ip), vehicle: Klucel (hydroxypropylcellulose) (HPC)
[16] = dose: 50.0 mg/kg/injection, schedule: Q01DX009 (ip), vehicle: saline with Tween-80
[17] = dose: 100.0 mg/kg/injection, schedule: Q04DX002 (ip), vehicle: saline with Tween-80
[18] = dose: 100.0 mg/kg/injection, schedule: Q04DX003 (ip), vehicle: saline with Tween-80
[19] = dose: 200.0 mg/kg/injection, schedule: Q04DX003 (ip), vehicle: saline with Tween-80
[20] = dose: 100.0 mg/kg/injection, schedule: Q01DX001 (ip), vehicle: carboxymethylcellulose (CMC)
[21] = dose: 200.0 mg/kg/injection, schedule: Q01DX001 (ip), vehicle: carboxymethylcellulose (CMC)
[22] = dose: 100.0 mg/kg/injection, schedule: Q01DX001 (ip), vehicle: saline with Tween-80
[23] = dose: 200.0 mg/kg/injection, schedule: Q01DX001 (ip), vehicle: saline with Tween-80
[24] = dose: 400.0 mg/kg/injection, schedule: Q01DX001 (ip), vehicle: saline with Tween-80
[25] = dose: 100.0 mg/kg/injection, schedule: Q01DX001 (ip), vehicle: saline
[26] = dose: 200.0 mg/kg/injection, schedule: Q01DX001 (ip), vehicle: saline
[27] = dose: 400.0 mg/kg/injection, schedule: Q01DX001 (ip), vehicle: saline
[28] = dose: 50.0 mg/kg/injection, schedule: Q01DX001 (ip), vehicle: saline

Measured: T/C

CNC(=S)Nc1ccccc1
inactive: dose: 100.0 mg/kg/injection, schedule: Q04DX003 (ip), vehicle: carboxymethylcellulose (CMC) 95 % of control | dose: 200.0 mg/kg/injection, schedule: Q04DX003 (ip), vehicle: carboxymethylcellulose (CMC) 96 % of control

C1=CC2(OCCO2)C2CC=CC3(OCCO3)C2C1 (centres undefined)
inactive: dose: 100.0 mg/kg/injection, schedule: Q01DX009 (ip), vehicle: saline 113 % of control | [1] 109 % of control | [2] 98 % of control | [3] 109 % of control

COc1ccc(-c2n[nH]c(C(F)(F)F)c2N=NN(C)C)cc1OC
inactive: [4] 93 % of control | [5] 94 % of control | [6] 91 % of control

CC(C)=C(c1ccc(C(C)(C)C)cc1)c1ccc(C(C)(C)C)cc1
inactive: [7] 94 % of control | [8] 95 % of control

COC(=O)C1C2C=CC(C2)C1C(=O)O (centres undefined)
inactive: [9] 103 % of control | [7] 92 % of control | [10] 98 % of control | [11] 92 % of control | [8] 86 % of control | [12] 97 % of control | [13] 88 % of control | [14] 87 % of control | [15] 97 % of control

O=C1OC(c2ccccc2)(c2ccccc2)c2sccc21
inactive: [16] 91 % of control | [7] 102 % of control | [8] 94 % of control

Clc1ncnc2ccccc12
inactive: dose: 100.0 mg/kg/injection, schedule: Q01DX001 (ip), vehicle: Klucel (hydroxypropylcellulose) (HPC) 94 % of control | dose: 200.0 mg/kg/injection, schedule: Q01DX001 (ip), vehicle: Klucel (hydroxypropylcellulose) (HPC) 95 % of control

Cc1c(-c2ccccc2)sc(/N=C/c2ccc(Cl)c(Cl)c2)c1C#N
inactive: [7] 103 % of control and 104 % of control | [17] 96 % of control and 101 % of control | [8] 103 % of control and 108 % of control | dose: 200.0 mg/kg/injection, schedule: Q04DX002 (ip), vehicle: saline with Tween-80 97 % of control and 104 % of control | [14] 93 % of control and 97 % of control | dose: 400.0 mg/kg/injection, schedule: Q04DX002 (ip), vehicle: saline with Tween-80 104 % of control and 115 % of control

O=C(O)c1cccc(F)n1
inactive: [18] 91 % of control | [19] 89 % of control

O=C(O)/C=C/C(=O)Nc1ccc(Cl)cc1C(=O)c1ccccc1
inactive: [9] 101 % of control | [11] 98 % of control

CCCCC(=O)N/N=C/c1c[nH]c2ccc(Br)cc12
inactive: [20] 88 % of control | [21] 93 % of control | dose: 400.0 mg/kg/injection, schedule: Q01DX001 (ip), vehicle: carboxymethylcellulose (CMC) 93 % of control

CN1C(=O)CC[n+]2ccccc21
inactive: [1] 101 % of control | [2] 104 % of control | [3] 86 % of control

O=S(=O)(/N=C1C=C/C(=N\S(=O)(=O)c2ccccc2)C(Sc2ccccc2)=C\1)c1ccccc1
inactive: [22] 91 % of control | [23] 94 % of control | [24] 105 % of control

COC(=O)C1=C(C(=O)OC)C(C(=O)OC)N2C=CC=CC2=C1C(=O)OC (centres undefined)
inactive: dose: 50.0 mg/kg/injection, schedule: Q01DX001 (ip), vehicle: carboxymethylcellulose (CMC) 94 % of control | [20] 89 % of control | [21] 94 % of control

CCCCC(=O)N/N=C\c1cccc(OCc2ccccc2)c1
inactive: [25] 107 % of control | [26] 102 % of control | [27] 109 % of control

Oc1ccc(O)c(CCCCCc2cc(O)ccc2O)c1
inactive: dose: 25.0 mg/kg/injection, schedule: Q01DX009 (ip), vehicle: other 106 % of control | dose: 50.0 mg/kg/injection, schedule: Q01DX009 (ip), vehicle: other 98 % of control | [22] 104 % of control | dose: 100.0 mg/kg/injection, schedule: Q01DX009 (ip), vehicle: other 97 % of control | [23] 100 % of control | [24] 100 % of control

CCC1([N+](=O)[O-])COP(=O)(OC(=O)c2ccco2)OC1 (centres undefined)
inactive: [25] 97 % of control | [26] 96 % of control | [27] 96 % of control

CC(=O)O/N=C(\C)C12CCCCC1C(O)CCC2 (centres undefined)
inactive: [25] 91 % of control | [1] 94 % of control | [26] 91 % of control | [2] 101 % of control | [27] 91 % of control | [3] 104 % of control

S=P(c1ccccc1)(c1ccccc1)c1cccc2ccccc12
inactive: [25] 100 % of control | [26] 94 % of control | [27] 94 % of control

O=C(Nc1ccccc1)OCC1CC2CCC1C2 (centres undefined)
inactive: [9] 96 % of control | [10] 95 % of control | [11] 94 % of control | [12] 93 % of control | [13] 96 % of control | [15] 93 % of control

CCCCc1nc2c(O)ccc(O)c2nc1C
inactive: [4] 93 % of control | dose: 75.0 mg/kg/injection, schedule: Q04DX003 (ip), vehicle: other 101 % of control | [5] 88 % of control | dose: 150.0 mg/kg/injection, schedule: Q04DX003 (ip), vehicle: other 104 % of control | [6] 87 % of control

O=C(O)c1c(Br)c(Br)c(Br)c(Br)c1C(=O)Nc1ccc(Br)cc1
inactive: [9] 104 % of control | [11] 101 % of control

CC1=CCC(=O)O1
inactive: [28] 100 % of control | [16] 94 % of control | [25] 100 % of control | [7] 97 % of control | [26] 97 % of control | [8] 94 % of control | [27] 97 % of control

CCCCSc1nc2ccccc2[nH]1
inactive: [22] 93 % of control | [18] 93 % of control | [23] 104 % of control | [19] 97 % of control | [24] 104 % of control | dose: 400.0 mg/kg/injection, schedule: Q04DX003 (ip), vehicle: saline with Tween-80 100 % of control

Nc1nc(-c2ccc3c(c2)Sc2ccccc2O3)cs1
inactive: dose: 75.0 mg/kg/injection, schedule: Q04DX003 (ip), vehicle: saline 93 % of control | dose: 150.0 mg/kg/injection, schedule: Q04DX003 (ip), vehicle: saline 91 % of control | dose: 300.0 mg/kg/injection, schedule: Q04DX003 (ip), vehicle: saline 91 % of control

Cc1ccc2c(c1)Nc1ccccc1C(=O)N2
inactive: [9] 98 % of control | [11] 93 % of control | [13] 91 % of control

CC(C)c1cc(C(C)C)c(S(=O)(=O)Cl)c(C(C)C)c1
inactive: [28] 98 % of control | [25] 95 % of control | [26] 95 % of control | [27] 98 % of control

CCCCCCCCC1NC1CCCCCCCC (centres undefined)
inactive: dose: 25.0 mg/kg/injection, schedule: Q04DX002 (ip), vehicle: saline with Tween-80 98 % of control | dose: 50.0 mg/kg/injection, schedule: Q04DX002 (ip), vehicle: saline with Tween-80 88 % of control | dose: 100.0 mg/kg/injection, schedule: Q04DX002 (ip), vehicle: other 100 % of control | [17] 100 % of control | dose: 200.0 mg/kg/injection, schedule: Q04DX002 (ip), vehicle: other 96 % of control

[O-]c1nn(-c2ccccc2)c2cccc[n+]12
inactive: dose: 75.0 mg/kg/injection, schedule: Q01DX001 (ip), vehicle: saline 111 % of control

CCCCCCCCc1ccc(NNC(N)=S)cc1
inactive: dose: 3.12 mg/kg/injection, schedule: Q01DX009 (ip), vehicle: saline 93 % of control | dose: 6.25 mg/kg/injection, schedule: Q01DX009 (ip), vehicle: saline 101 % of control and 92 % of control | dose: 12.5 mg/kg/injection, schedule: Q01DX009 (ip), vehicle: saline 103 % of control | dose: 25.0 mg/kg/injection, schedule: Q01DX009 (ip), vehicle: saline 100 % of control
